# Measured values: patent publication US20160213647A1, “COMPOSITIONS AND METHODS FOR INHIBITING VIRAL INFECTION” (priority 2015, published 2016)
# Where two headings read alike, the source gives them in different places.
# Experiments:
# JUNV strain XJCl3 [1] = assay: microbe, parasite or virus in culture; details: Mammarenavirus juninense, A549, 48 h
# [2] = long term oral exposures up to 33 weeks; cited from earlier work
# Human cytomegalovirus = assay: microbe, parasite or virus in culture; format: cell-based; details: Human betaherpesvirus 5
# JUNV strain XJCl3 [3] = assay: microbe, parasite or virus in culture; details: Mammarenavirus juninense, Vero, 48 h
# RHDV isolate Ast/89 = assay: Treatment of rabbits infected with RHDV; format: in vivo, New Zealand white rabbits
# Protocol: Nine-week-old New Zealand white rabbits in a climatized room at 21° C., with a 12 h light cycle in accordance with the experimental design shown in Table 9 and provided standard dry rabbit food and water ad libitum. For survival studies, 14 animals were injected intramuscularly with 2×10^4 hemagglutination units of RHDV isolate Ast/89 and six of them treated with AR-12 (25 mg/Kg body weight) at 0, 12, 24 and 36 hours post infection ([…]). Animals in those groups were left to die spontaneously.
# in vitro = details: African green monkey
# HIV-1 isolate 4736_4 = assay: microbe, parasite or virus in culture; details: Human immunodeficiency virus 1, PBMC
# Vaccinia = assay: microbe, parasite or virus in culture; format: cell-based; details: Orthopoxvirus vaccinia
# [4] = 25 mg/Kg ip, after about 36 hours post infection, versus RHDV
smiles,measurement,setting,value
"NCC(=O)Nc1ccc(-n2nc(C(F)(F)F)cc2-c2ccc3c(ccc4ccccc43)c2)cc1 [AR-12, 2-amino-N-(4-(5-(phenanthren-2-yl)-3-(trifluoromethyl)-1H-pyrazol-1-yl)phenyl)acetamide]",EC50,JUNV strain XJCl3 [1],550 ± 50 nM
same,safety profile,[2],acceptable safety profile
same,EC50,Human cytomegalovirus,> 2400 nM
same,EC90,Human cytomegalovirus,> 2400 nM
same,EC50,JUNV strain XJCl3 [3],230 ± 10 nM
same,survival rates of infected rabbits increased,"RHDV isolate Ast/89; 25 mg/Kg ip each 12 hours, at least about 24 hours post infection, p<0.05 Fisher test",about 20%
same,level of marker of liver toxicity ALT (Alanine transaminase),RHDV isolate Ast/89; [4],decreased
same,level of marker of liver toxicity AST (Aspartate transaminase),RHDV isolate Ast/89; [4],decreased
same,level of marker of liver toxicity GGT (gamma-glutamyl transferase),RHDV isolate Ast/89; [4],decreased
same,level of marker of liver toxicity LDH (lactate dehydrogenase),RHDV isolate Ast/89; [4],decreased
same,CC50,in vitro; CC50 (Neutral Red),1.8 µg/mL
same,CC50,in vitro; CC50 (neutral red),2.4 µg/mL
same,CC50,in vitro; CC50 (visual),2.8 µg/mL
same,IC90,HIV-1 isolate 4736_4,762 nM
same,IC90,HIV-1 isolate 4736_4; read-out: IC50,2240 nM
same,EC50,Vaccinia,> 2400 nM
same,EC90,Vaccinia,> 2400 nM
same,CC50 (neutral red),"Vero; listed as Pichinde Virus An 4763, neutral red",2.8 µg/mL
same,CC50 (visual),Vero; listed as Pichinde Virus An 4763,3.2 µg/mL
same,CC50 (visual),Vero; listed as Yellow Fever Virus 17D,2.8 µg/mL
